Source: a melting point compilation (Tetko et al.)

Structure (SMILES)	melting point
CN1C(CSCC(F)(F)F)Nc2cc(Cl)c(S(N)(=O)=O)cc2S1(=O)=O (configuration not stated)	214 °C
CC1CNC(C(O)(C2=NCC(C)N2)C2=NCC(C)N2)=N1 (configuration not stated)	178 to 180 °C
ClCOc1ccc(Cl)cc1	29 to 30 °C
Cn1c(=O)c2[nH]c(Cl)nc2n(C)c1=O	290 °C
CCC(C)c1cc([N+](=O)[O-])cc([N+](=O)[O-])c1OC(=O)OC(C)C (configuration not stated)	61.5 °C
CCCCCCCCCC(=O)CCCCCC	37 °C
Cc1cccc(P(c2cccc(C)c2)c2cccc(C)c2)c1	100 to 103 °C
CSc1c(C#N)c(N)nc2c(/N=N/c3cccc(C(F)(F)F)c3)c(N)nn12	293 °C
CCN(CC)c1c([N+](=O)[O-])cc(C(F)(F)F)c(N)c1[N+](=O)[O-]	98.5 °C
CN1CCCN(C)CCN(C)CCCN(C)CC1	41 to 43 °C
O=C(Nc1ccc(Br)cc1)c1c(O)cccc1O	229 °C
NC(=S)c1cccc2c1OCCO2	106 to 109 °C
O=C(NC(=S)Nc1ccccc1)c1ccccc1	159 to 161 °C
CC1=C(C)C(O)OC1=O (configuration not stated)	82 °C
CCCCCCCCCCOC(=O)CCCCCCCCC	9.7 °C
Cc1cc(Br)cc(C)c1O	76 °C
O=C(Cl)c1scc2c1OCCO2	75 to 76 °C
O=C1c2ccccc2CC2c3ccccc3CCN12 (configuration not stated)	173 °C
CC1(C)C2CCC1(C)C(NC(=S)Nc1ccccc1)C2NC(=S)Nc1ccccc1 (configuration not stated)	178 °C
COC(=O)C1(S(=O)(=O)c2ccccc2)CCCCC1	114 °C
Cn1cncc1CC1COC(=O)C1C(O)c1ccccc1 (configuration not stated)	179 °C
CCCc1ccccn1	2 °C
COc1cc2c(cc1OC)C(=O)NCC2	175 °C
CC12CCCC1C1CCC3CCCCC3(C)C1CC2 (configuration not stated)	50.2 °C
Nc1ccc(Cl)c(C(F)(F)F)c1	37 °C
Nc1ccc(Cl)cc1O	152 to 157 °C
CNC(C)C1CCC(N)C(OC2C(N)CC(N)C(OC3OCC(C)(O)C(NC)C3O)C2O)O1 (configuration not stated)	105 °C

Structure (SMILES)	melting point
CCCCCCCCCCCCCC(=O)OC(=O)CCCCCCCCCCCCC	53.4 °C
CCC[N+](=O)[O-]	-108 °C
Nc1cc(Cl)nc(N)n1	201 °C
COc1ccccc1N/N=C1\C(=O)N(CN2CCCCC2)N=C1C	148 °C
Cn1nc(C(=O)O)cc1-c1cccs1	156 to 158 °C
CCCCCCCCCN	-1 °C
CCP(=S)(CC)CC	95 °C
O=c1cccc2n1CC1CNCC2C1 (configuration not stated)	152 °C
O=CC(O)C(O)CO (configuration not stated)	164 °C
CCCCCCCCCCCCCCCCCCCCCCCCO	75 to 77 °C
Nc1nnc(Br)s1	168 to 169 °C
COC(=O)c1ccccc1C(=O)c1cc(C)c(O)c(C)c1	155 to 157 °C
CC(=O)OCC(=O)C12OC(C)(C)OC1CC1C3CC(C=O)=C4C=C(OCCCl)CCC4(C)C3(F)C(O)CC12C (configuration not stated)	181 °C
CC12CCC3C(CCC4CC(O)CCC43C)C1CCC2=O (configuration not stated)	185 °C
CC(=O)OCCOCCOC(C)=O	18 °C
COc1cc(OC)c(C)c(OC)c1	28 °C
CCCCCCCCCCCc1ccccc1	-5 °C
Cc1nc(Cl)c2c(C)c(C)sc2n1	115 to 116 °C
Cn1cc(I)cn1	61 to 67 °C
O=C(c1cccs1)c1noc(-c2ccc3ccccc3c2)c1S(=O)(=O)c1ccccc1	128 °C
O=S(=O)(c1ccccc1)n1cc(Br)c2ccccc21	120 to 121 °C
O=C(O)c1ccc(NC(=O)C(Cc2ccc(O)cc2)NC(=O)c2ccccc2)cc1 (configuration not stated)	241 °C
c1ccc(-c2ccc(-c3nnc(-c4ccccc4)o3)cc2)cc1	168 to 172 °C
Clc1nc(Cl)c(Cl)c(Cl)n1	69 °C
CC1=C(C(=O)O)C(c2ccccc2)N(C)C(=O)N1C (configuration not stated)	165 °C
OC(c1ccccc1)P(c1ccccc1)c1ccccc1 (configuration not stated)	157 °C
CC1(C)OCC(C(O)C(O)C2COC(C)(C)O2)O1 (configuration not stated)	114 °C

Structure (SMILES)	melting point
CCCCI	-103 °C
CCS(N)(=O)=O	60 °C
C=C(C)C=C(C)C	-114 °C
Cc1oc(-c2ccccc2)nc1C(=O)O	182 to 183 °C
Nc1n[nH]c(N)c1Cc1ccc2c(c1)OCO2	169 to 171 °C
Cc1cc(NS(=O)(=O)c2ccc(N)cc2)n(-c2ccccc2)n1	195 °C
CC(=O)N1CCC(c2c[nH]c3ccccc23)CC1	174 to 176 °C
CCCOC1CCC2(C)C(CCC3C2CCC2(C)C(OCCC)CCC32)C1 (configuration not stated)	112 to 135 °C
O=[N+]([O-])c1ccc(N2CCNCC2)c(Cl)c1	105 to 106 °C
CCC1(C(=O)NC(C)c2ccc(Cl)cc2)C(C)C1(Cl)Cl (configuration not stated)	160 °C
O=C1c2ccccc2C(=O)C1(O)O	250 °C
[O-][N+](=Nc1ccccc1)c1ccc(N=Nc2ccccc2)cc1	130 to 131 °C
Nc1nnc(S)s1	243 to 244 °C
N=C1C=C(NC(=O)c2ccccc2)/C(=N/C(=O)c2ccccc2)C=C1NC(=O)c1ccccc1	> 330 °C
Cc1cncc([N+](=O)[O-])c1	96 °C
FC(F)(F)c1nnc(S)n1-n1cccc1	165 °C
Cc1cc(C)c(-c2cc(C)[nH]n2)c(C)c1	128 to 130 °C
CC(Nc1cc(C)ccn1)=C(C#N)C(=O)c1ccccc1	102 to 103 °C
CCCC(=O)c1cc(O)c(O)cc1O	154 °C
NCCCOCCCCOCCCN	4.5 °C
CCOC(=O)c1cc(C)n(-c2cc(C)[nH]n2)n1	120 to 122 °C
Fc1ccc(-c2ccc(F)cc2)cc1	94.5 °C
O=C(O)C1CCNCC1	336 °C
COC(=O)c1cccc(CBr)c1	44 °C
CNC1CC2OC(C)(C1OC)n1c3ccccc3c3c4c(c5c6ccccc6n2c5c31)C(=O)NC4 (configuration not stated)	270 °C

Continued, values first:

melting point	Structure (SMILES)
124 °C	COc1ccc(C(=O)C2=NOC3C(=O)N(c4ccc(Br)cc4)C(=O)C23)cc1 (configuration not stated)
141 °C	O/N=C(/CC(NO)c1ccccc1)c1ccccc1 (configuration not stated)
220 °C	COc1ccc(-c2nnc3n2NC(c2ccccc2O)S3)cc1 (configuration not stated)
257 to 259 °C	c1ccc(Nc2nc3ccccc3[nH]2)nc1
223 to 226 °C	S=c1[nH]ccn1-c1ccc(Cl)cc1
168 °C	Cc1cc(Cl)ccc1OC(C)C(=O)Nc1ccc2nc(SCc3ccccc3)sc2c1 (configuration not stated)
62 °C	CCCCc1cc2ccccc2c(O)c1C(C)=O
177 to 179 °C	O=C(O)c1cccc(-c2ccsc2)c1
229 to 232 °C	Oc1cc(C(F)(F)F)nc2ccc(OC(F)(F)F)cc12
93 °C	CC(=C(C#N)C#N)c1ccc(Cl)cc1
189 to 191 °C	CCOC(=O)c1c(NC(=S)Nc2ccccc2)sc2c1CCCC2
194 to 198 °C	O=C(O)c1cccc2c1C(=O)c1ccccc1-2
85 to 86 °C	COc1ccc(OC)c2ccccc12
238 to 240 °C	O=S1(=O)Cc2cccc3cccc(c23)C1
134 °C	CCCCN(CCCC)C(C(N)=O)c1ccc(OC)cc1 (configuration not stated)
86 °C	CSc1ccc(O)cc1
168 to 170 °C	Cc1nc(-c2ccccc2)sc1C(=O)NN
155 °C	COc1ccc(-c2csc(/C(C#N)=N\Nc3cc(C)ccc3C)n2)cc1
140 °C	Nc1cc(F)ccc1O
-32.2 °C	CCCCN(CCCC)c1ccccc1
97 to 98 °C	Cc1noc(-c2ccc(Br)cc2)n1
163 °C	COc1cc(NC(=S)N(C)C)c(C(c2ccc(C)o2)c2ccc(C)o2)cc1OC
21 °C	CCOc1ccc(Cl)cc1
135 to 137 °C	CCOC(=O)C(C#N)=C1Oc2ccccc2N1C
57 °C	O=C(O)Cc1ccc(F)c(Cl)c1
55 °C	O=C(CBr)c1ccccc1[N+](=O)[O-]
128 °C	Cc1ccc2ccc(=O)oc2c1

melting point	Structure (SMILES)
61 to 62 °C	Cc1ccc(S(=O)(=O)OCCc2coc3ccccc23)cc1
153 °C	O=C(CCl)c1ccc(C(=O)CCl)cc1
198 to 201 °C	O=C(C=NO)Nc1cc(Cl)ccc1Cl
30 °C	Clc1ccc(I)cc1Cl
192 °C	O=C(O)c1ccc(C(F)(F)F)nc1
97 °C	CCOc1cccc(NC(C)=O)c1
13 °C	C=Cc1ccccc1[N+](=O)[O-]
106 °C	CCOC(=O)C1=C(CBr)NC(C)=C(C(=O)OC)C1c1cccc([N+](=O)[O-])c1 (configuration not stated)
46 to 49 °C	CCCCCOc1ccc(O)cc1
86 °C	Cc1ccccc1-c1cc2ccccc2c(=O)o1
88 to 90 °C	OCc1cccc(-c2ccsc2)c1
84 to 88 °C	O=C(C=Cc1ccc(F)cc1)c1ccccc1
34 °C	Brc1ccc2cccnc2c1
193 to 195 °C	CC(C)(C)c1ccc(-c2nn[nH]n2)cc1
300 to 301 °C	O=C(O)c1ccc(-c2cnco2)cc1
191 to 194 °C	COc1ccc(C(=O)O)cc1[N+](=O)[O-]
38 °C	COc1ncc(F)cc1F
68 °C	NNC(=O)OCc1ccccc1
65 to 67 °C	NNc1ccc(F)cc1F
138 to 141 °C	Cc1nccn1-c1ccc(C#N)cc1
17 °C	c1ccc2c(c1)CNC2
118 °C	O=C(O)c1ccccc1Cc1ccccc1
158 °C	CCOC(=O)C1=C(C)NC(C)=C(C(=O)OC)C1c1cccc([N+](=O)[O-])c1 (configuration not stated)
87 to 88 °C	COc1ccc(C(=O)Cc2ccccc2)cc1OC
295 °C	Oc1cc(Cl)cnc1O
201 °C	COc1ccc2cc(-c3ccn[nH]3)ccc2c1
